Assay results published in PubChem BioAssay AID248 (DTP/NCI, 2004).
Values joined by “and” are separate entries in the source; they are usually repeats but may differ in a detail not shown here. Equal values may be shown once. Toxic doses and inconclusive results are not listed.

Test system: L1210 leukemia ip in BDF1 mice, survival T/C
Assay: NCI In Vivo Anticancer Drug Screen. Data for tumor model L1210 Leukemia (intraperitoneal) in B6D2F1 (BDF1) mice
Conditions: endpoint: mean survival time, higher = longer survival
In short: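 Each compound was tested against a transplantable tumor grown in mice. The endpoint was survival, with treated animals benchmarked against vehicle controls as a simple ratio.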

[1] = dose: 100.0 mg/kg/injection, schedule: Q01DX001 (ip), vehicle: saline
[2] = dose: 200.0 mg/kg/injection, schedule: Q01DX001 (ip), vehicle: saline
[3] = dose: 25.0 mg/kg/injection, schedule: Q01DX009 (ip), vehicle: Klucel (hydroxypropylcellulose) (HPC)

## CC/C(N)=C\C(=O)c1ccccc1
dose: 100.0 mg/kg/injection, schedule: Q04DX002 (ip), vehicle: Klucel (hydroxypropylcellulose) (HPC)
  T/C: 102 % of control
dose: 200.0 mg/kg/injection, schedule: Q04DX002 (ip), vehicle: Klucel (hydroxypropylcellulose) (HPC)
  T/C: 105 % of control
dose: 400.0 mg/kg/injection, schedule: Q04DX002 (ip), vehicle: Klucel (hydroxypropylcellulose) (HPC)
  T/C: 98 % of control

## O=C(O)CC(NCc1ccccc1)C1CCCCC1 (stereo not given)
dose: 100.0 mg/kg/injection, schedule: Q01DX001 (ip), vehicle: Klucel (hydroxypropylcellulose) (HPC)
  T/C: 95 % of control
dose: 200.0 mg/kg/injection, schedule: Q01DX001 (ip), vehicle: Klucel (hydroxypropylcellulose) (HPC)
  T/C: 101 % of control
dose: 400.0 mg/kg/injection, schedule: Q01DX001 (ip), vehicle: Klucel (hydroxypropylcellulose) (HPC)
  T/C: 98 % of control

## Oc1ccc2c(c1)CNCC2
[1]
  T/C: 96 % of control
[2]
  T/C: 98 % of control
dose: 400.0 mg/kg/injection, schedule: Q01DX001 (ip), vehicle: saline
  T/C: 102 % of control

## O=C1CCC(=O)N1c1ccc(Cl)cc1
dose: 12.5 mg/kg/injection, schedule: Q01DX009 (ip), vehicle: Klucel (hydroxypropylcellulose) (HPC)
  T/C: 107 % of control
[3]
  T/C: 98 % of control
dose: 50.0 mg/kg/injection, schedule: Q01DX009 (ip), vehicle: Klucel (hydroxypropylcellulose) (HPC)
  T/C: 101 % of control

## OB(O)c1ccccc1
dose: 100.0 mg/kg/injection, schedule: Q01DX009 (ip), vehicle: gum acacia
  T/C: 105 % of control
dose: 200.0 mg/kg/injection, schedule: Q01DX009 (ip), vehicle: gum acacia
  T/C: 99 % of control

## O=C(CCCN1CCC2(CC1)OC(=O)N(c1ccccc1)C2=O)c1ccc(F)cc1
dose: 100.0 mg/kg/injection, schedule: Q04DX003 (ip), vehicle: Klucel (hydroxypropylcellulose) (HPC)
  T/C: 89 % of control
dose: 200.0 mg/kg/injection, schedule: Q04DX003 (ip), vehicle: Klucel (hydroxypropylcellulose) (HPC)
  T/C: 106 % of control

## CCOc1c(OC)cc(/C=C/C(=O)NC2CC2)cc1OC
[3]
  T/C: 88 % of control
dose: 100.0 mg/kg/injection, schedule: Q01DX009 (ip), vehicle: Klucel (hydroxypropylcellulose) (HPC)
  T/C: 101 % of control and 88 % of control

## COC(=O)c1ccccc1C(=O)O
dose: 100.0 mg/kg/injection, schedule: Q04DX003 (ip), vehicle: saline with Tween-80
  T/C: 101 % of control
dose: 200.0 mg/kg/injection, schedule: Q04DX003 (ip), vehicle: saline with Tween-80
  T/C: 93 % of control

## Oc1ccc(/C=N/Nc2nc3ccccc3s2)c(O)c1
dose: 222.0 mg/kg/injection, schedule: Q01DX Z (ip), vehicle: methylcellulose (MC)
  T/C: 88 % of control
dose: 333.0 mg/kg/injection, schedule: Q01DX Z (ip), vehicle: methylcellulose (MC)
  T/C: 91 % of control
dose: 500.0 mg/kg/injection, schedule: Q01DX Z (ip), vehicle: methylcellulose (MC)
  T/C: 94 % of control

## CCNCCCNCC(Cc1ccccc1)c1ccccc1 (stereo not given)
dose: 100.0 mg/kg/injection, schedule: Q04DX002 (ip), vehicle: saline
  T/C: 102 % of control

## CC1(C)CN1C1=C(F)C(=O)C(N2CC2(C)C)=C(F)C1=O
dose: 6.25 mg/kg/injection, schedule: Q04DX003 (ip), vehicle: saline
  T/C: 100 % of control
dose: 12.5 mg/kg/injection, schedule: Q04DX003 (ip), vehicle: saline
  T/C: 104 % of control
dose: 25.0 mg/kg/injection, schedule: Q04DX003 (ip), vehicle: saline
  T/C: 104 % of control

## CCN(CCO)CCNc1ccc(C)c2sc3ccccc3c(=O)c12
dose: 26.0 mg/kg/injection, schedule: Q01DX009 (ip), vehicle: saline
  T/C: 110 % of control
dose: 40.0 mg/kg/injection, schedule: Q01DX009 (ip), vehicle: saline
  T/C: 122 % of control
dose: 50.0 mg/kg/injection, schedule: Q01DX001 (ip), vehicle: saline
  T/C: 105 % of control
dose: 60.0 mg/kg/injection, schedule: Q01DX009 (ip), vehicle: saline
  T/C: 124 % of control
dose: 78.0 mg/kg/injection, schedule: Q04DX003 (ip), vehicle: saline
  T/C: 111 % of control
[1]
  T/C: 116 % of control
dose: 114.0 mg/kg/injection, schedule: Q01DX001 (ip), vehicle: saline
  T/C: 104 % of control
dose: 114.0 mg/kg/injection, schedule: Q04DX003 (ip), vehicle: saline
  T/C: 120 % of control
dose: 135.0 mg/kg/injection, schedule: Q01DX009 (ip), vehicle: saline
  T/C: 95 % of control
dose: 174.0 mg/kg/injection, schedule: Q01DX001 (ip), vehicle: saline
  T/C: 110 % of control
dose: 174.0 mg/kg/injection, schedule: Q04DX003 (ip), vehicle: saline
  T/C: 172 % of control
[2]
  T/C: 121 % of control
dose: 260.0 mg/kg/injection, schedule: Q01DX001 (ip), vehicle: saline
  T/C: 165 % of control
